# Assay results taken from patent US20170050962A1, “IMIDAZO[1,2-A]PYRIDINES AS STIMULATORS OF SOLUBLE GUANYLATE CYCLASE FOR TREATING CARDIOVASCULAR DISEASES” (BAYER PHARMA AKTIENGESELLSCHAFT, priority 2014, published 2017).
# System: recombinant guanylate cyclase reporter cell line
# Assay: Effect on a recombinant guanylate cyclase reporter cell line
# Type: cell-based
# Conditions: in some cases mean values for individual determinations
# Description: B-2. Effect on a Recombinant Guanylate Cyclase Reporter Cell Line
# The cellular activity of the compounds according to the invention is determined using a recombinant guanylate cyclase reporter cell line, as described in F. Wunder et al., Anal. Biochem. 339, 104-112 (2005).
# Representative MEC values (MEC=minimum effective concentration) for the compounds of the invention are shown in the table below (in some cases as mean values for individual determinations): […]
row,Compound,MEC (minimum effective concentration)
1,"Cc1cc(OCc2c(F)cccc2F)c2nc(C)c(C3=CC(=NO)CC(C)(C)N3)n2c1 (stereo in doubt) [Example 5, (4E)-6-{8-[(2,6-Difluorobenzyl)oxy]-2,6-dimethylimidazo[1,2-a]pyridin-3-yl}-N-hydroxy-2,2-dimethyl-2,3-dihydropyridine-4(1H)-imine]",0.03 µM
2,"Cc1cc(OCc2c(F)cccc2F)c2nc(C)c(-c3ccc(=O)n(CC(C)(C)N)c3)n2c1 [Example 1, 1-(2-Amino-2-methylpropyl)-5-{8-[(2,6-difluorobenzyl)oxy]-2,6-dimethylimidazo[1,2-a]pyridin-3-yl}pyridin-2(1H)-one]",1.0 µM
3,"Cc1cc(OCc2c(F)cccc2F)c2nc(C)c(-c3ccc(OCC(C)(C)N)nc3)n2c1 [Example 2, 1-[(5-{8-[(2,6-Difluorobenzyl)oxy]-2,6-dimethylimidazo[1,2-a]pyridin-3-yl}pyridin-2-yl)oxy]-2-methylpropan-2-amine]",0.3 µM
4,"Cc1cc(OCc2c(F)cccc2F)c2nc(C)c(-c3ccn(CC(C)(C)N)c(=O)c3)n2c1 [Example 3, 1-(2-Amino-2-methylpropyl)-4-{8-[(2,6-difluorobenzyl)oxy]-2,6-dimethylimidazo[1,2-a]pyridin-3-yl}pyridin-2(1H)-one]",1.0 µM
5,"Cc1cc(OCc2c(F)cccc2F)c2nc(C)c(-c3ccnc(OCC(C)(C)N)c3)n2c1 [Example 4, 1-[(4-{8-[(2,6-Difluorobenzyl)oxy]-2,6-dimethylimidazo[1,2-a]pyridin-3-yl}pyridin-2-yl)oxy]-2-methylpropan-2-amine]",0.03 µM
6,"Cc1cc(OCc2c(F)cccc2F)c2nc(C)c(-c3nc(OCC(C)(C)N)n[nH]3)n2c1 [Example 6, 1-[(5-{8-[(2,6-Difluorobenzyl)oxy]-2,6-dimethylimidazo[1,2-a]pyridin-3-yl}-1H-1,2,4-triazol-3-yl)oxy]-2-methylpropan-2-amine]",3.0 µM
7,"Cc1cc(OCc2c(F)cccc2F)c2nc(C)c(-c3cc[nH]c(=O)c3)n2c1 [Example 8, 4-{8-[(2,6-Difluorobenzyl)oxy]-2,6-dimethylimidazo[1,2-a]pyridin-3-yl}pyridin-2(1H)-one]",1.0 µM
